The target in series [1] is T1, CYP2C8 (Homo sapiens, UniProt P10632).
T1 construct: pooled human liver microsomes; tissue BioIVT; host or cells: pooled human liver microsomes
T1 sequence (P10632 1-490): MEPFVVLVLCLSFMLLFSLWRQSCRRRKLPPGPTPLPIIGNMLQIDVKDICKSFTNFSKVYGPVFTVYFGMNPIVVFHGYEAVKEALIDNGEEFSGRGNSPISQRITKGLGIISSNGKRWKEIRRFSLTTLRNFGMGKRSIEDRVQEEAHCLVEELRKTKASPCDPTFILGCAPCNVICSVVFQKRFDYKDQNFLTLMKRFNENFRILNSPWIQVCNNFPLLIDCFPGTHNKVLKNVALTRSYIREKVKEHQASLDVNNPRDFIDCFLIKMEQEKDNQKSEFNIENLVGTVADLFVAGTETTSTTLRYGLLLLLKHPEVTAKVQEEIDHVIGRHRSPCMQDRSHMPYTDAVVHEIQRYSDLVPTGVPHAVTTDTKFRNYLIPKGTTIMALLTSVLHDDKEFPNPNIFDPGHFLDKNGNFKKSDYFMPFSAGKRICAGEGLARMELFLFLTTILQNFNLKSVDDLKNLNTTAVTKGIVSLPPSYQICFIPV
As to the kind of experiment: CYP450 inhibition in HLM, rosiglitazone probe. Particulars: read-out: IC50 CYP450 2C8. The class given is in vitro ADME. Here is the method: The CYP450 inhibition was determined by measuring the reaction products of known CYP450 substrates (probes). Probe solutions were prepared by diluting stock solutions with buffer (100 mM Tris-HCl, pH 7.5, and 0.5 mM EDTA) to the final indicated concentrations (Figure 5), and adding 180 µL of pooled human liver microsomes (20 mg/mL) (BioIVT, West Sussex, UK). These probe solutions were dispensed (195 µL) into clear 96-well plates with low evaporation lids (Corning, Turin, Italy) and the plates were prewarmed to 37 °C in a thermomixer (Hamilton, Agrate Brianza, Italy). Next, 5 µL of the test compound or appropriate positive control (Table S4) were added to the wells and the plates were incubated for a further 5 min. Following this, the reactions were started by adding NADPH regenerating solution (50 µL, see previous Section 4.7) to each well. CYP450 mixtures containing phenacetin, rosiglitazone, mephenytoin, atorvastatin, and nifedipine probes were incubated for 10 min at 37 °C, whereas those with midazolam and diclofenac were incubated for 5 min at 37 °C. Aliquots (100 µL) from each reaction mixture were quenched in 200 µL acetonitrile, and the mixtures were sedimented at 3000 ×g for 10 min at 4 °C. The supernatants were diluted in water containing 5 ng/mL Rolipram as an internal standard for LC-MS/MS analysis. All incubations were carried out in triplicate.
Probe products were analyzed on an API4000 Qtrap mass spectrometer (Applied Biosystems/MDS SCIEX, Monza, Italy) coupled with an Acquity UPLC system (Waters, Milan, Italy) and a CTC-PAL auto-injector (CTC Analytics AG, Zwingen, Switzerland). […] The column temperature was maintained at 60 °C. The injected sample volume was 10 µL, and analytes were eluted at a flow rate of 800 µL/min in a gradient of eluent A (water with 0.1% formic acid) and eluent B (acetonitrile with 0.1% formic acid). […] The analytes were quantified in multiple reaction-monitoring mode. Data were processed, and the percentage control activity was calculated based on a comparison between the ratio of the sample peak area and the peak area.

In series [2] the target is T2, CYP3A4 (Homo sapiens, UniProt P08684).
T2 construct: pooled human liver microsomes; tissue BioIVT; host or cells: pooled human liver microsomes
T2 sequence (P08684 whole entry): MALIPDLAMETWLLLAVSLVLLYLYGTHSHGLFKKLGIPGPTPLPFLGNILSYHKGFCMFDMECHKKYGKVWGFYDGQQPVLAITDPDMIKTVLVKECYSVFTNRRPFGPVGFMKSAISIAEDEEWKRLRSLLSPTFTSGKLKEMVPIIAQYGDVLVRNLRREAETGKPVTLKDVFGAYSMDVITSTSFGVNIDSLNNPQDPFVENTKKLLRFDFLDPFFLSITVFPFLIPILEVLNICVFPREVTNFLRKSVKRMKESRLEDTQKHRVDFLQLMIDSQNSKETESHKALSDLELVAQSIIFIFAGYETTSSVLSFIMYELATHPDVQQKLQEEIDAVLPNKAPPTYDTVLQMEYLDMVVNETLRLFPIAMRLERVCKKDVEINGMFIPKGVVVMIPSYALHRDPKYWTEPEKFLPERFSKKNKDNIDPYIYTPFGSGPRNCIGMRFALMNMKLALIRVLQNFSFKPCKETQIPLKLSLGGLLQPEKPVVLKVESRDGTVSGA
Nature of the series: CYP450 inhibition in HLM, atorvastatin, nifedipine and midazolam probes. The class given is in vitro ADME. The procedure:
All incubations were carried out in triplicate.
The column temperature was maintained at 60 °C. […] The column temperature was maintained at 45 °C. […] The analytes were quantified in multiple reaction-monitoring mode.

In series [3] the target is T3, CYP2D6 (Homo sapiens, UniProt P10635).
T3 construct: pooled human liver microsomes; tissue BioIVT; host or cells: pooled human liver microsomes
T3 sequence (P10635 whole entry): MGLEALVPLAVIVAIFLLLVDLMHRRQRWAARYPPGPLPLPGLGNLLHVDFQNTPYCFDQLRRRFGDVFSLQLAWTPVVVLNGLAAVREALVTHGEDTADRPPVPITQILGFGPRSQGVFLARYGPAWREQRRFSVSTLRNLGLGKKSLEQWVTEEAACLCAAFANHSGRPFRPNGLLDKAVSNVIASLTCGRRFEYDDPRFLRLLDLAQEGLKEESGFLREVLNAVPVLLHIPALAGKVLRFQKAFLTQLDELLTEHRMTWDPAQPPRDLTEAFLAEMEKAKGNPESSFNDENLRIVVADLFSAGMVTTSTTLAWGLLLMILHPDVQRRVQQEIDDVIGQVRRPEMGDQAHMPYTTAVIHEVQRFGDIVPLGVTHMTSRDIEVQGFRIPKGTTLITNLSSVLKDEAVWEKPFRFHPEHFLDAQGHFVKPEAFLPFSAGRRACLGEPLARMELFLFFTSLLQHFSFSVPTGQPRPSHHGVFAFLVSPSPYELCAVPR
Nature of the series: CYP450 inhibition in HLM, bufuralol probe. The class given is in vitro ADME. Particulars: read-out: IC50 CYP450 2D6.

Series [4] in a line: CellTiter-Glo luminescent cell viability assay (ATP), H27. The series is classed as cell-based, human. The following applies: human; H27 cells, 48 h, ATP luminescence; read-out: Cytotoxicity IC50 H27. Here is the method: (§1) The number of viable cells based on ATP quantification was determined using the CellTiter-Glo® luminescent cell viability assay (Promega, Madison, WI, USA, lot no. 0000200446). Briefly, cells were seeded into white, flat-bottomed, sterile 96-well plates (PerkinElmer, Beaconsfield, UK) and incubated for 24 h. For A-375 cells, we used 10,000 cells/well, and for H27 cells, we used 7500 cells/well. Test compounds were diluted in assay medium (Glutamax DMEM with 5% FBS (Gibco)) and added to the plates in two-fold dilutions starting at 100 µM. Negative controls (0.5% DMSO) and positive controls (camptothecin, 1.6 µM for the A-375 cells and 50 µM for the H27 cells) were also included, and the plates were incubated for an additional 48 h (95% humidity, 5% CO2 at 37 °C). After incubation, the cells were washed with PBS. To each well, we then added 50 µL of assay medium plus 50 µL of CellTiter-Glo® reagent. The samples were then shaken for 2 min at 100 rpm at 25 °C, followed by a further 10 min at 25 °C to stabilize the luminescence signal. Luminescence was measured using a VarioSkan LUX multimode microplate reader (Thermo Fisher Scientific, Vantaa, Finland).

Series [5] has as its system H27 cells. The description is as above. The class given is cell-based, human. The following applies: IC50 cytotoxicity/IC50 P. aeruginosa growth inhibition in M9 acetate. The procedure:
as §1

Series [6] in a line: CytoTox 96 LDH release cytotoxicity assay, U937. The series is classed as cell-based, human. The following applies: human; U937 cells, LDH release. Here is the method:
The CytoTox 96® nonradioactive cytotoxicity assay (Promega, Madison, WI, USA) was performed to determine the number of cells affected by necrosis measuring LDH release. A U937 cell suspension (5 × 10^5 cells/mL) was prepared, and 99.5 µL of this suspension were added to the wells of clear, sterile, 96-well, U-bottomed plates (Greiner, Dungannon, UK). The test compounds (0.5 µL of a 200 × concentrated stock) or 0.5% DMSO (control) were added to each well, and the plates were shaken for 1 min at 100 rpm, followed by 3.5 h at 37 °C with 5% CO2. At this point, CytoTox 96® 10× lysis solution was added to the wells reserved for total lysis. These samples represented the LDH released following complete cell lysis. After 30 min, 50 µL of supernatant from each test well and total lysis well was transferred to new 96-well plates (Thermo Fisher Scientific, Bishop’s Stortford, UK). Prethawed CytoTox 96® buffer was mixed with the CytoTox 96® substrate, and 50 µL were added into each well. The plates were incubated for 10 min in darkness at 25 °C. CytoTox 96® stop buffer (50 µL) was added, and the plates were incubated for a further 15 min. LDH release was quantified by measuring A492 nm in a CLARIOstar® multimode microplate reader (BMG Labtech, Aylesbury, UK).
A general note: Release of lactate dehydrogenase indicates damage to the cell membrane.

Setting [7] is: midazolam probe, read-out: IC50 CYP450 3A4- MDZ.
The mark [8] stands for this setting: atorvastatin probe, read-out: IC50 CYP450 3A4-ATR.
Setting [9] is: nifedipine probe, read-out: IC50 CYP450 3A4-NIF.

Values joined by “and” are separate entries in the source; they are usually repeats but may differ in a detail not shown here. Identical values can stand only once. Like-named read-outs stand apart in the source and are kept apart here.

The term IC50 denotes the concentration that gives 50% inhibition.

On to `Nc1cc(Cl)ccn1` [Compound 2-AP, 2-amino-4-chloropyridine, reference compound], for which the IC50 in series [1], in series [2] (setting [7]) and in series [3] was over 100 µM in each case.
Consider `CC(C)(C)OC(=O)/N=C(\NC(=O)OC(C)(C)C)Nc1cc(Cl)ccn1` [SB002], for which the IC50 at 48 h in series [4] worked out at 98.4 µM. In series [5], the “Therapeutic index H27” value is 93 and 93.73. The IC50 in series [1], in series [2] (setting [8]), in series [2] (setting [7]), in series [2] (setting [9]) and in series [3] was over 100 µM throughout. Further, 0.0182 mM corresponded to half-maximal inhibition in series [6] (IC50 at 3.5 h).
Take `CC(C)(C)OC(=O)/N=C(\NC(=O)OC(C)(C)C)Nc1cc(C#N)ccn1` [SB023]: the IC50 at 48 h in series [4] was 205 µM. For the same compound, the “Therapeutic index H27” value in series [5] amounted to 23.27. Further, the IC50 in series [1], in series [2] (setting [8]), in series [2] (setting [7]), in series [2] (setting [9]) and in series [3] was over 100 µM throughout. Moreover, the IC50 at 3.5 h in series [6] amounted to 3.22 mM.

The record behind these values is article PMC7177833, “2-Aminopyridine Analogs Inhibit Both Enzymes of the Glyoxylate Shunt in Pseudomonas aeruginosa” (International Journal of Molecular Sciences, 2020).
